Reference: patent US12448375B2, “Kinase inhibitors for the treatment of neurodegenerative diseases” (Ohio State Innovation Foundation, priority 2019, dated 2025)

Tests used:
Format in all cases: biochemical
Settings in all cases: HotSpot radiometric assay, 33P-ATP
[1] = target: T1, JNK1 (Homo sapiens, UniProt P45983); test: HotSpot Kinase Assay, JNK1
T1 construct: purchased Reaction Biology Corp
Method: (§1) The anti-JNK3 activity of compounds prepared as in the previous examples was evaluated using a Reaction Biology Corp. HotSpot Kinase Assay. Base reaction buffer was 20 mM HEPES (4-(2-hydroxyethyl)-1-piperazineethanesulfonic acid) at pH 7.5 with 10 mM MgCl2, 1 mM EGTA (ethylene glycol-bis(β-aminoethyl ether)-N,N,N′,N′-tetracetic acid), 0.02% Brij™ 35, 0.02 mg/mL BSA (bovine serum albumin), 0.1 mM Na3VO4, 2 mM DTT (dithiothreitol), and 1% DMSO. Required cofactors were added individually to each kinase reaction.
(§2) Activity against related enzymes JNK1 and P38a was further assessed using the same assay.

[2] = target: T2, JNK3 (Homo sapiens, UniProt P53779); test: HotSpot Kinase Assay (Reaction Biology Corp.), anti-JNK3 activity
T2 construct: purchased Reaction Biology Corp
Method: as §1, §2

[3] = target: T3, p38a (Homo sapiens, UniProt Q16539); test: HotSpot Kinase Assay, P38a
T3 construct: purchased Reaction Biology Corp
Method: as §1, §2

T3 sequence (Q16539 whole entry): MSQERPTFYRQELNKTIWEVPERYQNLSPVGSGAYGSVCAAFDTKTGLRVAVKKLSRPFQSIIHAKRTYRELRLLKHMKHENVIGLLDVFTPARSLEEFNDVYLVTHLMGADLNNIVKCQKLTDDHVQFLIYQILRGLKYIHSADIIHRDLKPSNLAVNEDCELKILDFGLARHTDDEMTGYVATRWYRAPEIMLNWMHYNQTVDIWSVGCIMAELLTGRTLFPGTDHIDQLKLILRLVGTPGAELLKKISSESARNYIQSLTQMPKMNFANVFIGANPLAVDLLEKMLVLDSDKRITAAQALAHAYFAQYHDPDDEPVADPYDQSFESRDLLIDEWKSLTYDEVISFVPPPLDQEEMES
T1 sequence (P45983 whole entry): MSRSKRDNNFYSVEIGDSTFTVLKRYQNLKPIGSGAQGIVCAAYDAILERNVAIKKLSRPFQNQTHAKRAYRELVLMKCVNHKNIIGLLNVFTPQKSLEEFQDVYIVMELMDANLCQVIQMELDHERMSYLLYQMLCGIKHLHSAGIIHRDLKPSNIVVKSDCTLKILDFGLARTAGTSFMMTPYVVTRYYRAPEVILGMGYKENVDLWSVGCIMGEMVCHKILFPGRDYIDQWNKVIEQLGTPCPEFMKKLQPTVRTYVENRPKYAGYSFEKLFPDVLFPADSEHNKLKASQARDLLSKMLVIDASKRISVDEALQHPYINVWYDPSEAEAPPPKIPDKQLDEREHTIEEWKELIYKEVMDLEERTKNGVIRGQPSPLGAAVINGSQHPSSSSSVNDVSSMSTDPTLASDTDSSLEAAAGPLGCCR
T2 sequence (P53779 whole entry): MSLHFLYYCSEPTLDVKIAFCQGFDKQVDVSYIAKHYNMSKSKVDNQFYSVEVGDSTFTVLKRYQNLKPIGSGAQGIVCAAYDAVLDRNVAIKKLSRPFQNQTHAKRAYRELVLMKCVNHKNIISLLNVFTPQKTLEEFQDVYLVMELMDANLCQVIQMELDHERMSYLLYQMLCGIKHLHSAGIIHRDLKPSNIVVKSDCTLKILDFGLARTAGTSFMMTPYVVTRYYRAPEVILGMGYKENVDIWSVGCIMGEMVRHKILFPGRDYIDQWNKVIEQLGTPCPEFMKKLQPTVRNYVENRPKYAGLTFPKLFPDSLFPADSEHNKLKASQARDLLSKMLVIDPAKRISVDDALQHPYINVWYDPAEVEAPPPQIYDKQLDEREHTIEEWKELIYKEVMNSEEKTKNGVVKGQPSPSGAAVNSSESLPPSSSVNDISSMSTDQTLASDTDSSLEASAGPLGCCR

Row | Compound | IC50 [1] | IC50 [2] | IC50 [3]
1 | CC(C)NC(=O)c1cc(-n2ncc3cc(Oc4ccccc4Cl)ncc32)cs1 [Compound 7, 4-(5-(2-chlorophenoxy)-1H-pyrazolo[3,4-c]pyridine-1-yl)-N-isopropylthiophene-2-carboxamide] | > 1000 nM | < 200 nM | > 1000 nM
2 | O=C(NC1CN(C2CC2)C1)c1cc(-n2ncc3cc(Oc4ccccc4Cl)ccc32)cs1 [Compound 10, 4-(5-(2-chlorophenoxy)-1H-indazol-1-yl)-N-(1-cyclopropylazetidin-3-yl)thiophene-2-carboxamide] | > 1000 nM | < 200 nM | 200 to 1000 nM
3 | O=C(NC1COC1)c1cc(-n2ncc3cc(Oc4ccccc4Cl)ccc32)cs1 [Compound 11, 4-(5-(2-chlorophenoxy)-1H-indazol-1-yl)-N-(oxetan-3-yl)thiophene-2-carboxamide] | > 1000 nM | < 200 nM | > 1000 nM
4 | COCC(COC)NC(=O)c1cc(-n2ncc3cc(Oc4ccccc4Cl)ncc32)cs1 [Compound 12, 4-(5-(2-chlorophenoxy)-1H-pyrazolo[3,4-c]pyridin-1-yl)-N-(1,3-dimethoxypropan-2-yl)thiophene-2-carboxamide] | > 1000 nM | 200 to 1000 nM | > 1000 nM
5 | [2H]C([2H])([2H])N1CC[C@@H](NC(=O)c2cc(-n3ncc4cc(Oc5ccccc5Cl)ccc43)cs2)C1 [Compound 13, (R)-4-(5-(2-chlorophenoxy)-1H-indazol-1-yl)-N-(1-(methyl-d3)pyrrolidin-3-yl)thiophene-2-carboxamide] | > 1000 nM | < 200 nM | 200 to 1000 nM
6 | COCCNC(=O)c1cc(-n2ncc3cc(Oc4ccccc4Cl)ncc32)cs1 [Compound 14, 4-(5-(2-chlorophenoxy)-1H-pyrazolo[3,4-c]pyridin-1-yl)-N-(2-methoxyethyl)thiophene-2-carboxamide] | > 1000 nM | < 200 nM | > 1000 nM
7 | CNC(=O)c1cc(-n2ncc3cc(Oc4ccccc4Cl)ncc32)cs1 [Compound 15, 4-(5-(2-chlorophenoxy)-1H-pyrazolo[3,4-c]pyridin-1-yl)-N-methylthiophene-2-carboxamide] | – | < 200 nM | –
8 | CC(C)NC(=O)c1cc(-n2ncc3cc(Nc4ccccc4Cl)ncc32)cs1 [Compound 16, 4-(5-((2-chlorophenyl)amino)-1H-pyrazolo[3,4-c]pyridin-1-yl)-N-isopropylthiophene-2-carboxamide] | 200 to 1000 nM | < 200 nM | 200 to 1000 nM
9 | COCCNC(=O)c1cc(-n2ncc3cc(Nc4ccccc4Cl)ncc32)cs1 [Compound 17, 4-(5-((2-chlorophenyl)amino)-1H-pyrazolo[3,4-c]pyridin-1-yl)-N-(2-methoxyethyl)thiophene-2-carboxamide] | 200 to 1000 nM | < 200 nM | < 200 nM
10 | CCNC(=O)c1cc(-n2ncc3cc(Oc4ccccc4Cl)ncc32)cs1 [Compound 18, 4-(5-(2-chlorophenoxy)-1H-pyrazolo[3,4-c]pyridin-1-yl)-N-ethylthiophene-2-carboxamide] | – | < 200 nM | –
11 | Cn1cnc(NC(=O)c2cc(-n3ncc4cc(Nc5ccccc5Cl)ncc43)cs2)c1 [Compound 19, 4-(5-((2-chlorophenyl)amino)-1H-pyrazolo[3,4-c]pyridin-1-yl)-N-(1-methyl-1H-imidazol-4-yl)thiophene-2-carboxamide] | – | < 200 nM | –
12 | O=C(NC1COC1)c1cc(-n2ncc3cc(Nc4ccccc4Cl)ncc32)cs1 [Compound 20, 4-(5-((2-chlorophenyl)amino)-1H-pyrazolo[3,4-c]pyridin-1-yl)-N-(oxetan-3-yl)thiophene-2-carboxamide] | – | < 200 nM | –
13 | CN1CCN=C1NC(=O)c1cc(-n2ncc3cc(Nc4ccccc4Cl)ncc32)cs1 [Compound 21, 4-(5-((2-chlorophenyl)amino)-1H-pyrazolo[3,4-c]pyridin-1-yl)-N-(1-methyl-4,5-dihydro-1H-imidazol-2-yl)thiophene-2-carboxamide] | – | < 200 nM | –
14 | CC(=O)N1CC(NC(=O)c2cc(-n3ncc4cc(Nc5ccccc5Cl)ncc43)cs2)C1 [Compound 22, N-(1-acetylazetidin-3-yl)-4-(5-((2-chlorophenyl)amino)-1H-pyrazolo[3,4-c]pyridin-1-yl)thiophene-2-carboxamide] | – | < 200 nM | –
15 | O=C(NC1COC1)c1cc(-n2ncc3cc(Oc4ccccc4Cl)ncc32)cs1 [Compound 23, 4-(5-(2-chlorophenoxy)-1H-pyrazolo[3,4-c]pyridin-1-yl)-N-(oxetan-3-yl)thiophene-2-carboxamide] | – | 200 to 1000 nM | –
16 | CNC(=O)c1cc(-n2ncc3cc(Nc4cccc(F)c4Cl)ncc32)cs1 [Compound 24, 4-(5-((2-chloro-3-fluorophenyl)amino)-1H-pyrazolo[3,4-c]pyridin-1-yl)-N-methylthiophene-2-carboxamide] | – | < 200 nM | –
17 | CCNC(=O)c1cc(-n2ncc3cc(Nc4ccccc4Cl)ncc32)cs1 [Compound 26, 4-(5-((2-chlorophenyl)amino)-1H-pyrazolo[3,4-c]pyridin-1-yl)-N-ethylthiophene-2-carboxamide] | – | < 200 nM | –

Row | Compound | IC50 [1] | IC50 [2] | IC50 [3]
18 | O=C(NC1CNC1)c1cc(-n2ncc3nc(Nc4ccccc4Cl)ncc32)cs1 [Compound 27, N-(azetidin-3-yl)-4-(5-((2-chlorophenyl)amino)-1H-pyrazolo[4,3-d]pyrimidin-1-yl)thiophene-2-carboxamide] | > 1000 nM | > 1000 nM | > 1000 nM
19 | CC(=O)N1CC(NC(=O)c2cc(-n3ncc4cc(Nc5ccccc5Cl)ccc43)cs2)C1 [Compound 29, N-(1-acetylazetidin-3-yl)-4-(5-((2-chlorophenyl)amino)-1H-indazol-1-yl)thiophene-2-carboxamide] | – | < 200 nM | –
20 | O=C(NC1CC1)c1cc(-n2ncc3cc(Nc4ccccc4Cl)c(F)cc32)cs1 [Compound 31, 4-(5-((2-chlorophenyl)amino)-6-fluoro-1H-indazol-1-yl)-N-cyclopropylthiophene-2-carboxamide] | < 200 nM | < 200 nM | < 200 nM
21 | COC(=O)N1CC(NC(=O)c2cc(-n3ncc4cc(Nc5ccccc5Cl)ccc43)cs2)C1 [Compound 33, Methyl 3-(4-(5-((2-chlorophenyl)amino)-1H-indazol-1-yl)thiophene-2-carboxamido)azetidine-1-carboxylate] | – | < 200 nM | –
22 | CNC(=O)c1cc(-n2ncc3nc(Nc4ccccc4Cl)ncc32)cs1 [Compound 41, 4-(5-((2-chlorophenyl)amino)-1H-pyrazolo[4,3-d]pyrimidin-1-yl)-N-methylthiophene-2-carboxamide] | – | 200 to 1000 nM | –
23 | O=C(NCCCF)c1cc(-n2ncc3nc(Nc4ccccc4Cl)ncc32)cs1 [Compound 42, 4-(5-((2-chlorophenyl)amino)-1H-pyrazolo[4,3-d]pyrimidin-1-yl)-N-(3-fluoropropyl)thiophene-2-carboxamide] | – | < 200 nM | –
24 | O=C(NC1=NCCO1)c1cc(-n2ncc3cc(Nc4ccccc4Cl)c(F)cc32)cs1 [Compound 43, 4-(5-((2-chlorophenyl)amino)-6-fluoro-1H-indazol-1-yl)-N-(4,5-dihydrooxazol-2-yl)thiophene-2-carboxamide] | – | < 200 nM | –
25 | CN1CCN=C1NC(=O)c1cc(-n2ncc3cc(Nc4ccccc4Cl)ccc32)cs1 [Compound 45, 4-(5-((2-chlorophenyl)amino)-1H-indazol-1-yl)-N-(1-methyl-4,5-dihydro-1H-imidazol-2-yl)thiophene-2-carboxamide] | – | < 200 nM | –
26 | N#CCNC(=O)c1cc(-n2ncc3cc(Nc4ccccc4Cl)ccc32)cs1 [Compound 46, 4-(5-((2-chlorophenyl)amino)-1H-indazol-1-yl)-N-(cyanomethyl)thiophene-2-carboxamide] | – | < 200 nM | –
27 | O=C(N[C@H]1CCOC1)c1cc(-n2ncc3nc(Nc4ccccc4Cl)ccc32)cs1 [Compound 51, (S)-4-(5-((2-chlorophenyl)amino)-1H-pyrazolo[4,3-b]pyridin-1-yl)-N-(tetrahydrofuran-3-yl)thiophene-2-carboxamide] | – | < 200 nM | –
28 | Cn1cnc(NC(=O)c2cc(-n3ncc4nc(Nc5ccccc5Cl)ccc43)cs2)c1 [Compound 57, 4-(5-((2-chlorophenyl)amino)-1H-pyrazolo[4,3-b]pyridin-1-yl)-N-(1-methyl-1H-imidazol-4-yl)thiophene-2-carboxamide] | – | < 200 nM | –
29 | Cn1ccnc1NC(=O)c1cc(-n2ncc3nc(Nc4ccccc4Cl)ccc32)cs1 [Compound 59, 4-(5-((2-chlorophenyl)amino)-1H-pyrazolo[4,3-b]pyridin-1-yl)-N-(1-methyl-1H-imidazol-2-yl)thiophene-2-carboxamide] | – | 200 to 1000 nM | –
30 | CN1C[C@@H](NC(=O)c2cc(-n3ncc4nc(Nc5ccccc5Cl)ccc43)cs2)CC1=O [Compound 60, (S)-4-(5-((2-chlorophenyl)amino)-1H-pyrazolo[4,3-b]pyridin-1-yl)-N-(1-methyl-5-oxopyrrolidin-3-yl)thiophene-2-carboxamide] | – | < 200 nM | –
31 | Cn1cnc(NC(=O)c2cc(-n3ncc4cc(Nc5ccccc5Cl)cnc43)cs2)c1 [Compound 66, 4-(5-((2-chlorophenyl)amino)-1H-pyrazolo[3,4-b]pyridin-1-yl)-N-(1-methyl-1H-imidazol-4-yl)thiophene-2-carboxamide] | – | < 200 nM | –
32 | Cn1ccnc1NC(=O)c1cc(-n2ncc3cc(Nc4ccccc4Cl)cnc32)cs1 [Compound 67, 4-(5-((2-chlorophenyl)amino)-1H-pyrazolo[3,4-b]pyridin-1-yl)-N-(1-methyl-1H-imidazol-2-yl)thiophene-2-carboxamide] | – | < 200 nM | –
33 | CCNC(=O)c1cc(-n2ncc3cc(Oc4ccccc4Cl)cnc32)cs1 [Compound 73, 4-(5-(2-chlorophenoxy)-1H-pyrazolo[3,4-b]pyridin-1-yl)-N-ethylthiophene-2-carboxamide] | – | < 200 nM | –
